What was measured:
ER/NF-κB = ER/NF-κB luciferase reporter in Ad5-wt-ERα infected HAECT-1 cells; assay type: cell-based, human; conditions: Homo sapiens, HAECT1, IL-1β; for Emax: read-out: ER/NFκB Efficacy (%)*; for IC50: read-out: ER/NFκB IC50
Protocol: (§1) After four hours, cells were washed with EBM-BSA and incubated overnight in the same medium. Following overnight incubation, cells were washed with EBM-BSA and infected for 2 hours with 6 mL of a 1:10 dilution of Ad5-3x(NFκB).Luc virus (Adenovirus luciferase expression vector driven by 3 repeats of the MHC NFκb site 5′ to the thymidine kinase promoter) in EBM-BSA. After two hours, cells were washed and incubated at 34° C. for 1 hour. […] Control (no ER infection) cells were processed as above without Ad5-wt-hERα virus infection.
(§2) ERα infected HAECT-1 cells or control cells were thawed, diluted 42× in warm EBM-BSA, plated into 96-well plates at 0.1 mL/well and incubated for 4 hours at 34° C. Test compounds were added to the cells as 2× stocks in EBM-BSA containing 2 ng/mL IL-1β (R&D Systems) and the 96-well plates were returned to the incubator (34° C.). After 15-20 hours, 100 μL aliquots of media were removed from the cells and assayed for IL-6 content using a BioSource human IL-6 ELISA Kit. Cells were subsequently washed with 300 μL of Dulbecco's phosphate buffered saline and lysed in 50 μL of Cell Culture Lysis Reagent (Promega). Luciferase was determined on a Wallac Victor^2 Luminometer (Gaithersburg, Md.) using 10 μL of lysate and mixing with 100 μL of Promega Luciferase Assay reagent. Creatine kinase was determined from the rate of increase in A340 following addition of 100 μL of CK assay reagent (Sigma, cat. No 47-10) to the remainder of the cell lysate.
(§3) For IC50 and EC50 calculations, mean IL-6, luciferase or CK values versus log10 of the compound concentration were fitted to a four parameter logistic equation. The IC50/EC50 value, ‘Hill slope’, upper and lower limits of the curve were iteratively estimated.

creatine kinase = test: Creatine kinase (CK) test procedure in Ad5-wt-ERα infected HAECT-1 cells; assay type: cell-based, human; conditions: Homo sapiens, HAECT1, Ad5-wt-ERα infected HAECT-1 cells; for Emax at 10 µM / Emax: read-out: Creatin Kinase Efficacy (%); for EC50: read-out: Creatin Kinase EC50
Protocol: as §1, §2, §3

Row | SMILES | melting point | IC50 (ER/NF-κB) | EC50 (creatine kinase) | Emax (ER/NF-κB) | Emax at 10 µM (creatine kinase) | Emax (creatine kinase)
1 | CCC1c2c(C)cccc2-c2ccccc2N1S(=O)(=O)c1ccc(O)cc1 (stereo not shown) [Example 42, 4-[(6-ethyl-7-methylphenanthridin-5(6H)-yl)sulfonyl]phenol] | 167 to 169 °C | 83 nM |  | 99% | < 35% | 
2 | CC(C)(C)C1c2ccccc2-c2ccccc2N1S(=O)(=O)c1ccc(O)cc1 (stereo not shown) [Example 14, 4-[(6-tert-Butylphenanthridin-5(6H)-yl)sulfonyl]phenol] | 192 to 194 °C | 108 nM | 757 nM | 105% |  | 50%
3 | CC1c2cc(Cl)ccc2-c2cc(Br)ccc2N1S(=O)(=O)c1ccc(O)cc1 (stereo not shown) [Example 62, 4-[(2-Bromo-8-chloro-6-methylphenanthridin-5(6H)-yl)sulfonyl]phenol] | 213 to 215 °C | 120 nM |  | 90% | < 35% | 
4 | CC1c2ccccc2-c2ccccc2N1S(=O)(=O)c1ccc(O)c(O)c1 (stereo not shown) [Example 23, 4-[(6-Methylphenanthridin-5(6H)-yl)sulfonyl]benzene-1,2-diol] | 163 to 165 °C | > 10000 nM |  |  | < 35% | 
5 | C[C@@H]1c2ccccc2-c2ccccc2N1S(=O)(=O)c1ccc(O)cc1 (single isomer, unassigned) [Example 3] | 181 to 183 °C | 1510 nM |  | 97% | < 35% | 
6 | CC1c2cc(F)ccc2-c2cc(Br)ccc2N1S(=O)(=O)c1ccc(O)cc1 (stereo not shown) [Example 45, 4-[(2-Bromo-8-fluoro-6-methylphenanthridin-5(6H)-yl)sulfonyl]phenol] | 237 to 239 °C | 357 nM |  | 92% | < 35% | 
7 | CC1c2ccccc2-c2cc(Br)ccc2N1S(=O)(=O)c1ccc(O)cc1 (stereo not shown) [Example 4, 4-[(2-Bromo-6-methylphenanthridin-5(6H)-yl)sulfonyl]phenol] | 201 to 203 °C | 54 nM | 48 nM | 101% |  | 23%
8 | O=S(=O)(c1ccc(O)cc1)N1c2ccccc2-c2ccccc2[C@@H]1c1ccccc1 (single isomer, unassigned) [Example 11] | 210 to 212 °C | 168 nM | 117 nM | 115% |  | 37%
9 | CC1c2ccccc2-c2ccccc2N1S(=O)(=O)c1ccc(O)c(CO)c1 (stereo not shown) [Example 26, 2-(Hydroxymethyl)-4-[(6-methylphenanthridin-5(6H)-yl)sulfonyl]phenol] | 182 to 184 °C | > 10000 nM |  |  | < 35% | 
10 | O=S(=O)(c1ccc(O)cc1)N1c2ccc(Br)cc2-c2ccccc2C1c1ccccc1 (stereo not shown) [Example 12, 4-[(2-Bromo-6-phenylphenanthridin-5(6H)-yl)sulfonyl]phenol] | 262 to 265 °C | 682 nM |  | 93% | < 35% | 
11 | CCC1c2ccccc2-c2cc(-c3cccc(O)c3)ccc2N1S(=O)(=O)c1ccc(O)cc1 (stereo not shown) [Example 30, 3-{6-Ethyl-5-[(4-hydroxyphenyl)sulfonyl]-5,6-dihydrophenanthridine-2-yl}phenol] | 105 °C | 53 nM |  | 76% | < 35% | 
12 | Cc1cc(S(=O)(=O)N2c3ccccc3-c3ccccc3C2C)cc(C)c1O (stereo not shown) [Example 59, 2,6-Dimethyl-4-[(6-methylphenanthridin-5(6H)-yl)sulfonyl]phenol] | 211 to 213 °C | 1720 nM | 2930 nM | 102% |  | 22%
13 | O=S(=O)(c1ccc(O)cc1)N1c2ccccc2-c2ccccc2[C@H]1c1ccccc1 (single isomer, unassigned) [Example 10] | 208 to 210 °C | 61 nM |  | 95% | < 35% | 
14 | CC(C)(C)C1c2ccccc2-c2cc(Br)ccc2N1S(=O)(=O)c1ccc(O)cc1 (stereo not shown) [Example 17, 4-[(2-Bromo-6-tert-butylphenanthridin-5(6H)-yl)sulfonyl]phenol] | 245 to 247 °C | 58 nM |  | 76% | < 35% | 
15 | O=S(=O)(c1ccc(O)cc1)N1c2ccccc2-c2ccccc2C1c1ccccc1 (stereo not shown) [Example 9, 4-[(6-Phenylphenanthridin-5(6H)-yl)sulfonyl]phenol] | 217 to 220 °C | 125 nM | 455 nM | 89% |  | 26%
16 | CCC1c2cc(F)ccc2-c2cc(-c3ccccc3)ccc2N1S(=O)(=O)c1ccc(O)cc1 (stereo not shown) [Example 47, 4-[(6-Ethyl-8-fluoro-2-phenylphenanthridin-5(6H)-yl)sulfonyl]phenol] | 207 °C | 60 nM |  | 89% | < 35% | 
17 | CC1c2ccccc2-c2cc(Br)ccc2N1S(=O)(=O)c1ccc(O)c(F)c1 (stereo not shown) [Example 57, 4-[(2-Bromo-6-methylphenanthridin-5(6H)-yl)sulfonyl]-2-fluorophenol] | 203 to 206 °C | > 10000 nM |  |  | < 35% | 
18 | CCC1c2ccc(C)cc2-c2ccccc2N1S(=O)(=O)c1ccc(O)cc1 (stereo not shown) [Example 43, 4-[(6-Ethyl-9-methylphenanthridin-5(6H)-yl)sulfonyl]phenol] | 167 to 170 °C | > 10000 nM |  |  | < 35% | 
19 | CCC1c2cc(F)ccc2-c2cc(Br)ccc2N1S(=O)(=O)c1ccc(O)cc1 (stereo not shown) [Example 44, 4-[(2-Bromo-6-ethyl-8-fluorophenanthridin-5(6H)-yl)sulfonyl]phenol] | 220 to 221 °C | 85 nM |  | 94% | < 35% | 

Now from value to molecule, other results behind:

Row | melting point | IC50 (ER/NF-κB) | EC50 (creatine kinase) | SMILES | Emax (ER/NF-κB) | Emax at 10 µM (creatine kinase) | Emax (creatine kinase)
20 | 151 °C | 27 nM |  | CCC1c2cc(F)ccc2-c2ccccc2N1S(=O)(=O)c1ccc(O)cc1 (stereo not shown) [Example 40, 4-[(6-Ethyl-8-fluorophenanthridin-5(6H)-yl)sulfonyl]phenol] | 99% | < 35% | 
21 | 165 to 170 °C | > 10000 nM |  | CC1c2cc(F)ccc2-c2ccccc2N1S(=O)(=O)c1ccc(O)c(O)c1 (stereo not shown) [Example 50, 4-[(8-Fluoro-6-methylphenanthridin-5(6H)-yl)sulfonyl]benzene-1,2-diol] |  | < 35% | 
22 | 212 °C | 690 nM |  | CC1c2ccc(O)cc2-c2ccccc2N1S(=O)(=O)c1ccc(O)cc1 (stereo not shown) [Example 36, 5-[(4-Hydroxyphenyl)sulfonyl]-6-methyl-5,6-dihydrophenanthridin-9-ol] | 60% | < 35% | 
23 | 188 °C | 96 nM | 302 nM | CC1c2cc(F)ccc2-c2ccccc2N1S(=O)(=O)c1ccc(O)cc1 (stereo not shown) [Example 32, 4-[(8-Fluoro-6-methylphenanthridin-5(6H)-yl)sulfonyl]phenol] | 96% |  | 26%
24 | 196 °C | 707 nM |  | Cc1cc(S(=O)(=O)N2c3ccccc3-c3ccc(F)cc3C2C)ccc1O (stereo not shown) [Example 35, 4-[(8-Fluoro-6-methylphenanthridin-5(6H)-yl)sulfonyl]-2-methylphenol] | 94% | < 35% | 
25 | 191 °C | > 10000 nM |  | CC1c2cc(F)ccc2-c2ccccc2N1S(=O)(=O)c1ccc(O)c(F)c1 (stereo not shown) [Example 49, 2-Fluoro-4-[(8-fluoro-6-methylphenanthridin-5(6H)-yl)sulfonyl]phenol] |  | < 35% | 
26 | 181 °C | 815 nM | 429 nM | CCC1c2cc(F)ccc2-c2ccccc2N1S(=O)(=O)c1ccc(O)c(C)c1 (stereo not shown) [Example 41, 4-[(6-Ethyl-8-fluorophenanthridin-5(6H)-yl)sulfonyl]-2-methylphenol] | 75% |  | 24%
27 | 161 °C | 525 nM |  | CC1c2cc(F)ccc2-c2ccccc2N1S(=O)(=O)c1cccc(O)c1 (stereo not shown) [Example 48, 3-[(8-fluoro-6-methylphenanthridin-5(6H)-yl)sulfonyl]phenol] | 107% | < 35% | 
28 | 174 to 177 °C | > 10000 nM |  | CCC1c2cc(F)ccc2-c2ccccc2N1S(=O)(=O)c1ccc(O)c(Cl)c1 (stereo not shown) [Example 46, 2-Chloro-4-[(6-ethyl-8-fluorophenanthridin-5(6H)-yl)sulfonyl]phenol] |  | < 35% | 
